Test: Liver microsomes stability assay, mouse
Format: in vitro ADME
Procedure: page 31: using a REMS Autosampler (World Precision Instruments, Sarasota, […]1 cells were grown for 5 days to reach a consistent confluency level monitored by epithelial voltohmmeter to confirm the intactness of the confluent polarized monolayer. For transport experiments, each cultured monolayer on the 96-well plate was washed twice with a transport buffer (HBSS/25 mM […] The cell-based permeability assay was initiated by the addition of each compound solution (10 μmol/L) into inserts (apical side, A) or receivers (basolateral side, B). After incubated […] (if basal to apical permeability), and concentrations were assessed by UPLC/MS (Waters; Milford, MA). All compounds were tested in triplicates. The A→B (or B→A) apparent permeability coefficients (Papp) of each compound were calculated using the equation (3): […], where dQ/dt equals the flux of a drug across the monolayer, the parameters of A equals the surface area of total insert well, and C0 is the initial concentration of substrate in the donor compartment. The efflux ratio was determined by dividing the Papp in the B-A direction by the Papp in the A-B direction. […] NADPH regenerating agent solutions A and B (Corning GentestTM, Cat. No: 451220) were purchased from Discovery Labware (Woburn, MA). Mouse liver microsomes (CD-1, pooled, GibcoTM, Cat. No: MSMCPL) were obtained from Thermo Fisher Scientific (Fredrick, MD). Pooled human liver microsomes (mixed gender, Cat. No: E0630) were purchased from XenoTech (Lenexa, KS). Stock solutions of test compounds were prepared at 10 mM in DMSO. Sample preparation for microsomal stability was modified from Di's publications3,4. […] and 4 hours) by Labcyte Echo 650 acoustic dispenser (Beckman Coulter Life Sciences, Indianapolis, IN). All compounds were tested in triplicate per time point. […] Plasma stability assay5: The degradation of human or mouse plasma was assessed by monitoring the gradual reduction of the parent compound over specified time intervals (0, 3, 24, and 48 hours). […]

`O=C1CCC(N2Cc3cc(Nc4noc5ccccc45)ccc3C2=O)C(=O)N1` (stereo not drawn) [SJ3149] showed a half-life at 10 µM (CD-1, mouse, liver microsomes, pH 7.4, read-out: Microsome stability t1/2) greater than 10 h.

With `O=C1CCC(N2Cc3cc(Nc4noc5ccccc45)ccc3C2=O)C(=O)N1` (stereo not drawn) [SJ001043149-1] the Ke was -0.01 and the “t(1/2)” value was -69.12.
